Source: US6218112A, “Optimization of gene delivery and gene delivery system” (Cobra Therapeutics Limited, priority 1997, dated 2001)
* marks the point of attachment. Acm = CC(=O)NC*

Key:
[1] = tested on: plasmid nucleic acid pRSVLuc; assay: Surface plasmon resonance (BIAcore) binding kinetics of peptides/conjugates to immobilized biotinylated plasmid DNA; details: apparent rate constant for dissociation; SPR, PBS, 25° C.
Description: In the examples described below, SPR was detected using the BIAcore system. This machine contained an SPR detector and an integrated microfluidic cartridge which is engineered such that an analyte solution (cationic peptide) is continuously passed over the sensor chip. The sensor chip consists of a glass plate coated with a thin film of gold covered in a layer of carboyxymethyl dextran. The chip used has a dextran layer to which streptavidin is covalently attached. The chip is prepared for use by adding biotinylated nucleic acid which will be bound to the chip via the streptavidin-biotin interaction, and the same chip is used in a series of experiments.
As material binds to the immobilized nucleic acid molecule on the sensor chip, the SPR angle of plane polarized light shining on the surface of the chip is monitored by the detector. Changes in angle are defined as resonance units (RU) and data are collected every second. Background effects are detected and automatically subtracted by the use of a control flow cell in line with the nucleic acid flow cell.
A typical sensorgram has three phases: an association phase, an equilibrium phase and a dissociation phase (see FIG. 1). The rise in signal occurs as more peptide binds to the immobilized plasmid DNA until equilibrium conditions are reached. The height of the peak is directly proportional to the mass of peptide bound. If the flow continues with buffer containing no peptide, peptide begins to dissociate from the complex and the resonance signal is reduced. The sensorgram can be used to compute apparent rate constants for each of the three individual processes.
(1) dC/dt=ka [PF ] [Pmax -PB ]-kd [PB ]
Measurement of Binding Kinetics by Surface Plasmon Resonance
A 6 kilobase (kb) plasmid DNA (pRSVLuc) was biotinylated using photoactivatable biotin (Pierce and Warriner) as per manufacturer's instructions.
A sensor chip with immobilized streptavidin (SA5) was conditioned following manufacturer's instructions, i.e., three one-minute injections of 1 M NaCl: 50 mM NaOH followed by one 1 min injection of 0.5% SDS. Flow rate on the BlAcore sensing device was 20 μl per min, running buffer was phosphate buffered saline (PBS). Flow path was flow cells 1 and 2.
The flow path was switched to flow cell 2 only and the flow rate was reduced to 10 μl per minute. Biotinylated plasmid at a concentration of […] in 0.5M NaCl was injected for 3 mins.
Phosphate buffered saline was used as running buffer at a flow rate of 20 μl per minute. The flow path was over flow cells 1 and 2. Flow cell 1 was used as a reference cell. The experiments were carried out at a temperature of 25° C.
Peptides were injected at various concentrations for three minutes. The injection was followed by a 5 min dissociation phase before the injection port was washed. The sensor chip was regenerated by the injection of 2M NaCl for 1 min. If necessary, this injection was repeated to bring the response back down to baseline before the next peptide sample was injected.
The data was analysed using the methods described in the handbook (BIAevaluation 2.1. Software Handbook, Pharmacia Biosensor AB, Uppsala, Sweden).
Essentially the plots were evaluated as follows: The dissociation constant, kd, was determined first. A curve or family of curves (same NBC at different concentrations) were plotted as response (Y) versus time as Ln (Yo/Y) versus time. In the area where the Ln(Yo/Y) curve was linear, a fit of the default dissociation model [AB]=[A]+[B] was made. The association constant, ka, was then calculated by fitting the related association model on that part of the association curve where a plot of In(abs(dY/dt) versus time was linear. KD were approximated by dividing the calculated kd with the calculated ka.

[2] = without salt at >20 μg/ml

NH2-KPKAAKPKKPKKKRKVEKKSPKKAKKPAAC(Acm)-COOH (H-KPKAAKPKKPKKKRKVEKKSPKKAKKPAAC(Acm)-OH; SMILES CC(=O)NCSC[C@H](NC(=O)[C@H](C)NC(=O)[C@H](C)NC(=O)[C@@H]1CCCN1C(=O)[C@H](CCCCN)NC(=O)[C@H](CCCCN)NC(=O)[C@H](C)NC(=O)[C@H](CCCCN)NC(=O)[C@H](CCCCN)NC(=O)[C@@H]1CCCN1C(=O)[C@H](CO)NC(=O)[C@H](CCCCN)NC(=O)[C@H](CCCCN)NC(=O)[C@H](CCC(=O)O)NC(=O)[C@@H](NC(=O)[C@H](CCCCN)NC(=O)[C@H](CCCNC(=N)N)NC(=O)[C@H](CCCCN)NC(=O)[C@H](CCCCN)NC(=O)[C@H](CCCCN)NC(=O)[C@@H]1CCCN1C(=O)[C@H](CCCCN)NC(=O)[C@H](CCCCN)NC(=O)[C@@H]1CCCN1C(=O)[C@H](CCCCN)NC(=O)[C@H](C)NC(=O)[C@H](C)NC(=O)[C@H](CCCCN)NC(=O)[C@@H]1CCCN1C(=O)[C@@H](N)CCCCN)C(C)C)C(=O)O) [NBC2]
kd [1]: 0.00938 s⁻¹
solubility of complexes [2]: insoluble
